# Reference: patent US8247211B2, “Glycopeptide antibiotics” (American Cyanamid Company, priority 2001, dated 2012)
# Assays:
# Assay in all cases: In vitro antibacterial evaluation: minimum inhibitory concentration (MIC), broth dilution method
# Assay type in all cases: cell-based
# [1] = system: Staphylococcus sp.; conditions: for MIC Staphylococcus haemolyticus (GC 4546): strain GC 4546; for MIC Coagulase Negative Staphylococcus (GC 4551): strain GC 4551; for MIC Staphylococcus aureus (GC 3051): strain GC 3051; for MIC Staphylococcus aureus (GC 3053): strain GC 3053; for MIC Staphylococcus aureus (GC 4542): strain GC 4542; for MIC Staphylococcus aureus (GC 4544): strain GC 4544; for MIC Staphylococcus aureus (GC 4545): strain GC 4545
# Procedure, shortened: (§1)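 Using Muller-Hinton II […] and an inoculum of 5×10^5 CFU/mL, antibiotic dilutions from 64 down to 0.06 μg/mL were tested following NCCLS M7-A2. The MIC is the lowest concentration inhibiting growth, including in methicillin-, penicillin- or vancomycin-resistant clinical isolates.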
# [2] = system: Enterococcus sp.
# Procedure, shortened: as §1
# [3] = system: Escherichia coli
# Procedure, shortened: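 Broth dilution per NCCLS M7-A2 in Muller-Hinton II […], inoculum 5×10^5 CFU/mL, antibiotic tested over 64-0.06 μg/mL. MIC is taken as the lowest concentration that inhibits growth. Panel includes recent clinical isolates resistant to methicillin, penicillin and/or vancomycin.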
# [4] = system: Streptococcus sp.
# Procedure, shortened: as §1
# [5] = broth dilution, 18 hours at 35° C.
# [6] = strain ATCC 29213, broth dilution, 18 hours at 35° C.
# [7] = strain GC 1131, broth dilution, 18 hours at 35° C.
# [8] = strain GC 4541, broth dilution, 18 hours at 35° C.
# [9] = broth dilution, inoculum 5×10^5 CFU/mL, 18 hours at 35° C.
# [10] = broth dilution, 5×10^5 CFU/mL, 18 hours at 35° C.
substance,measurement,setting,value
"Cyclo[glycyl-4-chloro-β-methylphenylalanyl-O-[4-O-(4,6-O-cyclopentylidenehexopyranosyl)-hexopyranosyl]tyrosyl-3-(2-iminoimidazolidin-4-yl)seryl-3-(3-hexopyranosyl-2-iminoimidazolidin-4-yl)serylseryl] [Example 202]",MIC Staphylococcus aureus-SMITH (GC 4543),"[1]; broth dilution, 18 hours at 35° C., strain GC 4543",4 µg/mL
same,MIC Staphylococcus haemolyticus (GC 4546),[1]; [5],2 µg/mL
same,MIC Coagulase Negative Staphylococcus (GC 4547),"[1]; broth dilution, 18 hours at 35° C., strain GC 4547",2 µg/mL
same,MIC Coagulase Negative Staphylococcus (GC 4548),"[1]; broth dilution, 18 hours at 35° C., strain GC 4548",2 µg/mL
same,MIC Coagulase Negative Staphylococcus (GC 4549),"[1]; broth dilution, 18 hours at 35° C., strain GC 4549",4 µg/mL
same,MIC Coagulase Negative Staphylococcus (GC 4551),[1]; [5],4 µg/mL
same,MIC Coagulase Negative Staphylococcus (GC 6257),"[1]; broth dilution, 18 hours at 35° C., strain GC 6257",2 µg/mL
same,MIC Staphylococcus aureus (ATCC 29213),[1]; strain ATCC 29213,4 µg/mL
same,MIC Staphylococcus aureus (ATCC 29213),[1]; [6],4 µg/mL
same,MIC Staphylococcus aureus (GC 1131),[1]; strain GC 1131,4 µg/mL
same,MIC Staphylococcus aureus (GC 1131),[1]; [7],4 µg/mL
same,MIC Staphylococcus aureus (GC 3051),[1],4 µg/mL
same,MIC Staphylococcus aureus (GC 3051),[1]; [5],4 µg/mL
same,MIC Staphylococcus aureus (GC 3053),[1],8 µg/mL
same,MIC Staphylococcus aureus (GC 3053),[1]; [5],8 µg/mL
same,MIC Staphylococcus aureus (GC 4541),[1]; strain GC 4541,4 µg/mL
same,MIC Staphylococcus aureus (GC 4541),[1]; [8],4 µg/mL
same,MIC Staphylococcus aureus (GC 4542),[1],4 µg/mL
same,MIC Staphylococcus aureus (GC 4542),[1]; [5],4 µg/mL
same,MIC Staphylococcus aureus-SMITH (GC 4543),[1]; strain GC 4543,4 µg/mL
same,MIC Staphylococcus aureus (GC 4544),[1],4 µg/mL
same,MIC Staphylococcus aureus (GC 4544),[1]; [5],4 µg/mL
same,MIC Staphylococcus aureus (GC 4545),[1],4 µg/mL
same,MIC Staphylococcus aureus (GC 4545),[1]; [5],4 µg/mL
same,MIC Staphylococcus haemolyticus (GC 4546),[1],2 µg/mL
same,MIC Coagulase Negative Staphylococcus (GC 4547),[1]; strain GC 4547,2 µg/mL
same,MIC Coagulase Negative Staphylococcus (GC 4548),[1]; strain GC 4548,2 µg/mL
same,MIC Coagulase Negative Staphylococcus (GC 4549),[1]; strain GC 4549,4 µg/mL
same,MIC Coagulase Negative Staphylococcus (GC 4551),[1],4 µg/mL
same,MIC Coagulase Negative Staphylococcus (GC 6257),[1]; strain GC 6257,2 µg/mL
same,MIC Enterococcus avium (GC 4558),"[2]; Enterococcus avium (GC 4558), 18 hours at 35° C.",32 µg/mL
same,MIC Enterococcus faecalis (ATCC 29212),"[2]; Enterococcus faecalis (ATCC 29212), 18 hours at 35° C.",32 µg/mL
same,MIC Enterococcus faecalis (GC 2242),"[2]; Enterococcus faecalis (GC 2242), 18 hours at 35° C.",16 µg/mL
same,MIC Enterococcus faecalis (GC 2691),"[2]; Enterococcus faecalis (GC 2691), 18 hours at 35° C.",16 µg/mL
same,MIC Enterococcus faecalis (GC 3059),"[2]; Enterococcus faecalis (GC 3059), 18 hours at 35° C.",64 µg/mL
same,MIC Enterococcus faecalis (GC 4552),"[2]; Enterococcus faecalis (GC 4552), 18 hours at 35° C.",32 µg/mL
same,MIC Enterococcus faecalis (GC 4553),"[2]; Enterococcus faecalis (GC 4553), 18 hours at 35° C.",32 µg/mL
same,MIC Enterococcus faecalis (GC 4554),"[2]; Enterococcus faecalis (GC 4554), 18 hours at 35° C.",32 µg/mL
same,MIC Enterococcus faecalis (GC 6189),"[2]; Enterococcus faecalis (GC 6189), 18 hours at 35° C.",16 µg/mL
same,MIC Enterococcus faecium (GC 2243),"[2]; Enterococcus faecium (GC 2243), 18 hours at 35° C.",32 µg/mL
same,MIC Enterococcus faecium (GC 4556),"[2]; Enterococcus faecium (GC 4556), 18 hours at 35° C.",16 µg/mL
same,MIC Enterococcus faecium (GC 4557),"[2]; Enterococcus faecium (GC 4557), 18 hours at 35° C.",4 µg/mL
same,MIC Enterococcus avium (GC 4558),[2]; [9],32 µg/mL
same,MIC Enterococcus faecalis (ATCC 29212),[2]; [9],32 µg/mL
same,MIC Enterococcus faecalis (GC 2242),[2]; [9],16 µg/mL
same,MIC Enterococcus faecalis (GC 2691),[2]; [9],16 µg/mL
same,MIC Enterococcus faecalis (GC 3059),[2]; [9],64 µg/mL
same,MIC Enterococcus faecalis (GC 4552),[2]; [9],32 µg/mL
same,MIC Enterococcus faecalis (GC 4553),[2]; [9],32 µg/mL
same,MIC Enterococcus faecalis (GC 4554),[2]; [9],32 µg/mL
same,MIC Enterococcus faecalis (GC 6189),[2]; [9],16 µg/mL
same,MIC Enterococcus faecium (GC 2243),[2]; [9],32 µg/mL
same,MIC Enterococcus faecium (GC 4556),[2]; [9],16 µg/mL
same,MIC Enterococcus faecium (GC 4557),[2]; [9],4 µg/mL
same,MIC Escherichia coli (ATCC 25922),"[3]; Escherichia coli (ATCC 25922), 18 hours at 35° C.",32 µg/mL
same,MIC Escherichia coli (GC 4559),"[3]; Escherichia coli (GC 4559), 18 hours at 35° C.",16 µg/mL
same,MIC Escherichia coli (GC 4560),"[3]; Escherichia coli (GC 4560), 18 hours at 35° C.",2 µg/mL
same,MIC Streptococcus agalactiae (GC 4564),"[4]; Streptococcus agalactiae (GC 4564), 18 hours at 35° C.",2 µg/mL
same,MIC Streptococcus pneumoniae (ATCC 6301),"[4]; Streptococcus pneumoniae (ATCC 6301), 18 hours at 35° C.",<0.5 µg/mL
same,MIC Streptococcus pneumoniae (GC 1894),"[4]; Streptococcus pneumoniae (GC 1894), 18 hours at 35° C.",<0.5 µg/mL
same,MIC Streptococcus pneumoniae (GC 4565),"[4]; Streptococcus pneumoniae (GC 4565), 18 hours at 35° C.",8 µg/mL
same,MIC Streptococcus pyogenes (GC 4563),"[4]; Streptococcus pyogenes (GC 4563), 18 hours at 35° C.",1 µg/mL
same,MIC Streptococcus agalactiae (GC 4564),[4]; [9],2 µg/mL
same,MIC Streptococcus pneumoniae (ATCC 6301),[4]; [9],<0.5 µg/mL
same,MIC Streptococcus pneumoniae (GC 1894),[4]; [9],<0.5 µg/mL
same,MIC Streptococcus pneumoniae (GC 4565),[4]; [9],8 µg/mL
same,MIC Streptococcus pyogenes (GC 4563),[4]; [9],1 µg/mL
"Cyclo[glycyl-β-methylphenylalanyl-O-[4-O-[4,6-O-β-(carboxymethoxy)benzylidene]hexopyranosyl]hexonyranosyl]tyrosyl-3-(2-iminoimidazolidin-4-yl)seryl-3-(3-hexopyranosyl-2-iminoimidazolidin-4-yl)serylseryl] [Example 166]",MIC Coagulase Negative Staphylococcus (GC 4547),[1]; [10],4 µg/mL
same,MIC Coagulase Negative Staphylococcus (GC 4548),[1]; [10],4 µg/mL
same,MIC Coagulase Negative Staphylococcus (GC 4549),[1]; [10],4 µg/mL
same,MIC Coagulase Negative Staphylococcus (GC 6257),[1]; [10],4 µg/mL
same,MIC Staphylococcus aureus (ATCC 29213),[1]; [10],8 µg/mL
same,MIC Staphylococcus aureus (GC 1131),[1]; [10],8 µg/mL
same,MIC Staphylococcus aureus (GC 4541),[1]; [10],8 µg/mL
same,MIC Staphylococcus aureus-SMITH (GC 4543),[1]; [10],4 µg/mL
same,MIC Staphylococcus aureus (ATCC 29213),[1]; [6],8 µg/mL
same,MIC Staphylococcus aureus (GC 1131),[1]; [7],8 µg/mL
same,MIC Staphylococcus aureus (GC 4541),[1]; [8],8 µg/mL
same,MIC Staphylococcus aureus-SMITH (GC 4543),"[1]; strain GC 4543, broth dilution, 18 hours at 35° C.",4 µg/mL
same,MIC Coagulase Negative Staphylococcus (GC 4547),"[1]; strain GC 4547, broth dilution, 18 hours at 35° C.",4 µg/mL
same,MIC Coagulase Negative Staphylococcus (GC 4548),"[1]; strain GC 4548, broth dilution, 18 hours at 35° C.",4 µg/mL
same,MIC Coagulase Negative Staphylococcus (GC 4549),"[1]; strain GC 4549, broth dilution, 18 hours at 35° C.",4 µg/mL
same,MIC Coagulase Negative Staphylococcus (GC 6257),"[1]; strain GC 6257, broth dilution, 18 hours at 35° C.",4 µg/mL
same,MIC Enterococcus avium (GC 4558),[2]; [9],32 µg/mL
same,MIC Enterococcus faecalis (ATCC 29212),[2]; [9],32 µg/mL
same,MIC Enterococcus faecalis (GC 2242),[2]; [9],32 µg/mL
same,MIC Enterococcus faecalis (GC 6189),[2]; [9],32 µg/mL
same,MIC Enterococcus faecium (GC 2243),[2]; [9],32 µg/mL
same,MIC Enterococcus faecium (GC 4556),[2]; [9],32 µg/mL
same,MIC Enterococcus faecalis (ATCC 29212),[2]; strain ATCC 29212,32 µg/mL
same,MIC Enterococcus faecalis (GC 2242),[2]; strain GC 2242,32 µg/mL
same,MIC Enterococcus faecium (GC 2243),[2]; strain GC 2243,32 µg/mL
same,MIC Enterococcus faecium (GC 4556),[2]; strain GC 4556,32 µg/mL
same,MIC Enterococcus avium (GC 4558),[2]; strain GC 4558,32 µg/mL
same,MIC Enterococcus faecalis (GC 6189),[2]; strain GC 6189,32 µg/mL
same,MIC Escherichia coli (ATCC 25922),[3]; strain ATCC 25922,>64 µg/mL
same,MIC Escherichia coli (GC 4559),[3]; strain GC 4559,>64 µg/mL
same,MIC Escherichi coli (GC 4560),[3]; strain GC 4560,2 µg/mL
same,MIC Streptococcus pneumoniae (ATCC 6301),[4]; [9],1 µg/mL
same,MIC Streptococcus pneumoniae (GC 1894),[4]; [9],1 µg/mL
same,MIC Streptococcus pneumoniae (ATCC 6301),[4]; strain ATCC 6301,1 µg/mL
same,MIC Streptococcus pneumoniae (GC 1894),[4]; strain GC 1894,1 µg/mL
